Data taken from patent US20230087609A1, “USE OF A SOLUBLE GUANYLATE CYCLASE (sGC) STIMULATOR OR OF A COMBINATION OF A sGC STIMULATOR AND AN sGC ACTIVATOR FOR CONDITIONS WHEREIN THE HEME GROUP OF sGC IS OXIDIZED OR WHEREIN sGC IS DEFICIENT IN HEME” (Universiteit Maastricht, priority 2020, published 2023).

Molecular target: T1, human apo-sGC (sGCα1 / mutant sGCβ1H105F) (Homo sapiens, UniProt Q02153, H105F)
T1 construct: His tag; made in house; host or cells: Sf9 cells infected with recombinant baculoviruses (provided by E. Martin); sonicated lysate, supernatant used unpurified
T1 sequence (Q02153 1-619 H105F): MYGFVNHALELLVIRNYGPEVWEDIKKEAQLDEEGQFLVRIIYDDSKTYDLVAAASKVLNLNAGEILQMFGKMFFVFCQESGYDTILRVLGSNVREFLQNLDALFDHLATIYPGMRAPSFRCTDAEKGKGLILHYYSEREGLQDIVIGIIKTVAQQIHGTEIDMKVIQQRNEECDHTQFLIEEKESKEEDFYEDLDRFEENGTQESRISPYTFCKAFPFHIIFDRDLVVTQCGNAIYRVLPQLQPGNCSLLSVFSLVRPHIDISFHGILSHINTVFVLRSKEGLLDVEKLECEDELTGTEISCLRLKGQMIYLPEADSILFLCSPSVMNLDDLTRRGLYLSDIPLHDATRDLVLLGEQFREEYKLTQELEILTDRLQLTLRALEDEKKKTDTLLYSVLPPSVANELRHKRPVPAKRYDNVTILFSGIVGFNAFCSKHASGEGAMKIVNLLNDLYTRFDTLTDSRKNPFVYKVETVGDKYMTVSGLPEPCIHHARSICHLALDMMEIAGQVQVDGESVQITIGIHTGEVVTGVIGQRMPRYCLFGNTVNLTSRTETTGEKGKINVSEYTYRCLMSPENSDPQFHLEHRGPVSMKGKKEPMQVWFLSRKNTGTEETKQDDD
T1 sequence (Q02108 1-690 partner): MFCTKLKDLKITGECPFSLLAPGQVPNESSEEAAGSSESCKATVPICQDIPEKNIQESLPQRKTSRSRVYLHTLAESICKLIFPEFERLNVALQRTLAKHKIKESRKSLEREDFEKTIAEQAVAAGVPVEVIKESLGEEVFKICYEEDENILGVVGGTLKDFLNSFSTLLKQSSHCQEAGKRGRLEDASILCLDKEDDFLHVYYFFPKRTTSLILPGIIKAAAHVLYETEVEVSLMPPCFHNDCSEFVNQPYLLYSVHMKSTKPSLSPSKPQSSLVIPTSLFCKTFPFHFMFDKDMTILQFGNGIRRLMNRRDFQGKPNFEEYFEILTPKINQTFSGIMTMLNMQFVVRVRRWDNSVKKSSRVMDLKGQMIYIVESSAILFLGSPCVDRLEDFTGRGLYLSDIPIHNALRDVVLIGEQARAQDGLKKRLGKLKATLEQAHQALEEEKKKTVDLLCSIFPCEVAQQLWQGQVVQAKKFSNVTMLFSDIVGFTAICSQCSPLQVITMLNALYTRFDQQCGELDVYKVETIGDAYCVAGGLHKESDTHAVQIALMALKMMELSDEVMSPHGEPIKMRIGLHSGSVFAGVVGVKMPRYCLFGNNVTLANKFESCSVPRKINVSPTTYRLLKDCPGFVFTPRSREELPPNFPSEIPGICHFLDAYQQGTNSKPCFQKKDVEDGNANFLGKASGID
Experiment: sGC activity of human apo-sGC expressed in SF-9 cells
Type: biochemical
Description: To measure sGC activity, cells were stimulated with 250 μM DEA/NO or 10 μM BAY58-2667 for 3 min at 37° C. Thereafter, cells were immediately lysed in 80% ethanol. Cells were scraped and, after evaporation of ethanol, re-suspended in assay buffer and sonicated. Measurement of sGC activity in crude homogenates of mouse tissue was performed as previously described (Nedvetsky et al., Brain Res. 2002; 950(1-2):148-154. doi: 10.1016/50006-8993(02)03015-9).[9] Briefly, all samples were measured as the formation of cGMP at 37° C. during 10 min in a total incubation volume of […] containing 50 mM triethanolamine-HCl (pH 7.4), 3 mM MgCl2, 3 mM glutathione (Carl Roth, Karlsruhe, Germany), 1 mM IBMX, […], 5 mM creatine phosphate, 0.25 mg/ml creatine kinase and 1 mM or 0.5 mM GTP. After adding sGC activator in the absence or presence of the sGC stimulator the reaction was started by application of GTP solution. […] Thereafter the amount of cGMP was subsequently determined by a commercial enzyme immunoassay kit (Enzo Life Sciences, Lorrach, Germany or Biotrend, Cologne, Germany). […]
Recombinant baculoviruses containing the cDNAs for the sGCa1 subunit with a His tag and mutant sGCβ31H105F with a His tag of human sGC were provided by E. Martin (Houston, Tex., USA). […] Protein concentrations were determined by the RC DC protein assay kit (Bio-Rad, Cat. no. 5000122).

sGC activity / cGMP formation in presence of ODQ (10 μM BAY 41-2272 + 10 μM ODQ (FIG. 8)): improves the formation of cGMP
SMILES: Nc1nc(-c2nn(Cc3ccccc3F)c3ncccc23)ncc1C1CC1 [BAY 41-2272, 5-cyclopropyl-2-[1-(2-fluoro-benzyl)-1H-pyrazolo[3,4-b]pyridin-3-yl]-pyrimidin-4-ylamine]
sGC activity / cGMP production (10 μM BAY 41-2272 alone (FIG. 8)): activated and cGMP is (increasingly) produced
